Measurements as given in PMC4646457 (PLoS ONE, 2015).
Converted amounts (≈) assume the structure as drawn.

Assays:
[1] = system: HER3; experiment: Quantitative IHC of phosphorylated HER3 in patient tumor (EGF10027); assay type: in vivo, human; details: for p-HER3 post-treatment OD: plasma […]
[2] = system: HER2+ human breast cancer cell lines; set-up: method as in PMID 12467226; details: in vitro proliferative growth, cited from earlier work
[3] = system: HER2 phosphorylation; set-up: method as in printed; details: abstract, ref not given, cited from earlier work
[4] = system: efflux transporter ABCB1; details: read-out: IC50 for inhibition of the efflux transporter ABCB1; cited from earlier work
[5] = system: plasma albumin; set-up: method as in printed; details: ref not given; cited from earlier work
[6] = set-up: method as in EGF10027 protocol, CIB RM2000/00481/06; details: Ames, CHO and human lymphocyte chromosome aberration, in vivo rat bone marrow; ref EGF10027 protocol, CIB RM2000/00481/06; cited from earlier work
[7] = set-up: method as in EGF10027 protocol, CIB RM2000/00481/06; details: pregnant rats or rabbits, period of major organogenesis; ref EGF10027 protocol, CIB RM2000/00481/06; cited from earlier work
[8] = set-up: method as in study EGF10003; details: ref study EGF10003, cited from earlier work
[9] = in vivo; details: female, CB-17 SCID, mouse; for AUC(0-t): AUClast; for MRT last: MRTlast
[10] = cancer patients, once daily dosing up to 1800 mg, preliminary
[11] = BT474 tumor, po, 100 mg/kg, 100 mg/kg BID, multiple doses
[12] = BT474 tumor, po, 100 mg/kg, single dose
[13] = BT474 tumor, po, 200 mg/kg, 200 mg/kg QD, multiple doses
[14] = BT474 tumor, po, 200 mg/kg, single dose
[15] = blood, po, 100 mg/kg, 100 mg/kg BID, multiple doses
[16] = blood, po, 100 mg/kg, single dose
[17] = blood, po, 200 mg/kg, 200 mg/kg QD, multiple doses
[18] = blood, po, 200 mg/kg, single dose
[19] = kidney, oral, 100 mg/kg, single dose

## CS(=O)(=O)CCNCc1ccc(-c2ccc3ncnc(Nc4ccc(OCc5cccc(F)c5)c(Cl)c4)c3c2)o1 [lapatinib]
[1]; mean of listed subjects
  p-HER3 post-treatment OD, mean: 10.40 OD
[1]; one patient with ABCB1 SNP C3435T, plasma 1 μM, tumor 9 μM
  HER3 phosphorylation in tumor: complete inhibition
[1]; subject 5, tumor 25.60 µM
  p-HER3 post-treatment OD: 16 OD
[1]; subject 124, tumor 56.02 µM
  p-HER3 post-treatment OD: 7 OD
[1]; subject 801, tumor 1.98 µM
  p-HER3 post-treatment OD: 14 OD
[1]; subject 803, tumor 2.08 µM
  p-HER3 post-treatment OD: 5 OD
[1]; subject 804, tumor 7.90 µM
  p-HER3 post-treatment OD: 11 OD
[1]; subject 1401, tumor 1.02 µM
  p-HER3 post-treatment OD: 3 OD
[1]; subject 1405, tumor 12.76 µM
  p-HER3 post-treatment OD: 18 OD
[2]
  IC90 in multiple HER2+ human breast cancer cell lines: ~0.5 µg/mL (≈ 0.86 µM)
[2]; read-out: IC90 in multiple HER2+ human breast cancer cell lines
  IC90: ~900 nM
[3]
  in vitro IC90 for inhibition of HER2 phosphorylation: ~0.5 µg/mL
[3]; read-out: in vitro IC90 for inhibition of HER2 phosphorylation
  IC90: ~900 nM
[4]
  IC50: 4000 nM
[5]
  binding to plasma albumin: > 99%
[6]
  mutagenicity and clastogenicity: non-mutagenic
[7]
  fetal malformations: No fetal malform ations
[8]; 900 mg BID
  subjects with dose-limiting toxicity (diarrhea): 2 of 6
[8]; [10]
  incidence of diarrhea: 18-25%
  incidence of nausea: < 10%
  incidence of rash: < 10%
[8]; patients receiving twice daily dosing (900 or 750 mg)
  incidence of gastrointestinal intolerance (nausea, vomiting and diarrhea): ~34%
[8]; patients
  AUC with 900 mg BID compared with 1800 mg once daily, higher: ~ two-fol d
[9]; BT474 tumor, oral, 200 mg/kg, Concentration, individual animals 1-3, tumor, 200 mg/kg QD, 96 h
  concentration at 96 h: 915 ng/mL
[9]; [11]
  AUC(0-t): 1120 µg·h/mL
  Cmax: 55800 ng/mL
  MRT last: 20.5 h
  Tmax: 4 h
[9]; [12]
  AUC(0-t): 313 µg·h/mL
  Cmax: 24900 ng/mL
  MRT last: 12.6 h
  Tmax: 12 h
[9]; [13]
  AUC(0-t): 1320 µg·h/mL
  Cmax: 79200 ng/mL
  MRT last: 18.7 h
  Tmax: 10 h
[9]; [14]
  AUC(0-t): 579 µg·h/mL
  Cmax: 44000 ng/mL
  MRT last: 17.5 h
  Tmax: 1 h
[9]; blood, liver, kidney, tumor, oral, 100 mg/kg
  half-life: 4 h
[9]; blood, oral, 100 mg/kg, Concentration, individual animals 1-3, blood, 100 mg/kg BID, 10 h
  concentration at 10 h: 3080 ng/mL
[9]; blood, oral, 100 mg/kg, Concentration, individual animals 1-3, blood, 100 mg/kg BID
  concentration at 24 h: 95.2 ng/mL
[9]; blood, oral, 200 mg/kg, Concentration, individual animals 1-3, blood, 200 mg/kg QD
  concentration at 24 h: 28 ng/mL
[9]; [15]
  AUC(0-t): 102 µg·h/mL
  Cmax: 9350 ng/mL
  MRT last: 6.9 h
  Tmax: 1 h
[9]; [16]
  AUC(0-t): 46.7 µg·h/mL
  Cmax: 7040 ng/mL
  MRT last: 6.3 h
  Tmax: 1 h
[9]; [17]
  AUC(0-t): 152 µg·h/mL
  Cmax: 16100 ng/mL
  MRT last: 7.3 h
  Tmax: 10 h
[9]; [18]
  AUC(0-t): 88.2 µg·h/mL
  Cmax: 8220 ng/mL
  MRT last: 8.5 h
  Tmax: 12 h
[9]; [19]
  AUC(0-t): 267 µg·h/mL
  Cmax: 29800 ng/mL
[9]; kidney, oral, 100 mg/kg, Concentration, individual animals 1-3, kidney, 100 mg/kg BID, 1 h
  concentration at 1 h: 57200 ng/mL
[9]; kidney, oral, 100 mg/kg, Concentration, individual animals 1-3, kidney, 100 mg/kg BID, 4 h
  concentration at 4 h: 72300 ng/mL
[9]; kidney, oral, 100 mg/kg, Concentration, individual animals 1-3, kidney, 100 mg/kg BID, 48 h
  concentration at 48 h: 114 ng/mL
